Here are results for 12 compounds from ChEMBL document CHEMBL5356939, “Research progress of anticancer drugs targeting CDK12” (RSC Med Chem, 2023).

pEC50, pIC50, pKd: −log10 of the molar value.

For test [1], the target named is T1, Cyclin-dependent kinase 9 (Homo sapiens, UniProt P50750). The test is described as follows: Inhibition of recombinant human CDK9 expressed in baculovirus infected Insect cell measured after 30 mins by scintillation counter analysis.
In test [2] the target is T2, Protein cereblon/Cyclin-dependent kinase 12 (Homo sapiens, UniProt Q96SW2+Q9NYV4). Put plainly: Protac activity at CRBN/CDK12 in human MOLT-4 cells assessed as […] by Westernblot analysis. The format is cell-based.
The target of test [3] is Cyclin-dependent kinase 1 (Homo sapiens, UniProt P06493). Put plainly: Inhibition of full length recombinant human CDK1 expressed in Insect cell in presence of ATP.
The target in test [4] is T3, Cyclin-dependent kinase 12 (Homo sapiens, UniProt Q9NYV4). Put plainly: Inhibition of GST-tagged recombinant human CDK12 (696 to 1082 residues) expressed in Insect cell in presence of ATP by Km ATP assay.
Test [5] deals with T4, Cyclin-dependent kinase 7 (Homo sapiens, UniProt P50613). The test is described as follows: Inhibition of full length recombinant human CDK7 expressed in Insect cell in presence of ATP.
Test [6] deals with Cyclin-dependent kinase 6 (Homo sapiens, UniProt Q00534).
Description: Binding affinity to CDK6 (unknown origin) assessed as dissociation constant
The target of test [7] is T1, Cyclin-dependent kinase 9.
Description: Binding affinity to CDK9 (unknown origin) assessed as dissociation constant
Test [8] in a line: Antiproliferative activity against human Neuroblastoma cell assessed as […] measured after 72 hrs. The format is functional, cell-based.
For test [9], the system named is Lung cancer cell line. Put plainly: Antiproliferative activity against human Lung cancer cell line assessed as […] measured after 72 hrs. The class given is functional, cell-based.
Test [10] has as its target Cyclin-dependent kinase 2 (Homo sapiens, UniProt P24941). Put plainly: Inhibition of full length recombinant human CDK2 expressed in Insect cell in presence of ATP.
In test [11] the target is T1, Cyclin-dependent kinase 9. The test is described as follows: Inhibition of full length recombinant human CDK9 expressed in Insect cell in presence of ATP.
The target in test [12] is T3, Cyclin-dependent kinase 12. Put plainly: Inhibition of GST-tagged recombinant human CDK12 (696 to 1082 residues) expressed in Insect cell in presence of ATP by high ATP assay.
Test [13] has as its target T2, Protein cereblon/Cyclin-dependent kinase 12. The test is described as follows: Protac activity at CRBN/CDK12 in human Jurkat cells assessed as […] measured after 6 hrs by Westernblot analysis. The format is cell-based.
Test [14] deals with Cyclin-dependent kinase 12 (Mus musculus, UniProt Q14AX6). The test is described as follows: Inhibition of CDK12 in mouse OV2944-HM-1 cells by Westernblot analysis. The class given is cell-based.
In test [15] the target is Cyclin-dependent kinase 13 (Homo sapiens, UniProt Q14004). The test is described as follows: Inhibition of CDK13 (unknown origin).
The target in test [16] is T4, Cyclin-dependent kinase 7. Put plainly: Inhibition of CDK7 (unknown origin).
Test [17] has as its target T3, Cyclin-dependent kinase 12. Put plainly: Inhibition of CDK12 (unknown origin).

T1 sequence (P50750 whole entry): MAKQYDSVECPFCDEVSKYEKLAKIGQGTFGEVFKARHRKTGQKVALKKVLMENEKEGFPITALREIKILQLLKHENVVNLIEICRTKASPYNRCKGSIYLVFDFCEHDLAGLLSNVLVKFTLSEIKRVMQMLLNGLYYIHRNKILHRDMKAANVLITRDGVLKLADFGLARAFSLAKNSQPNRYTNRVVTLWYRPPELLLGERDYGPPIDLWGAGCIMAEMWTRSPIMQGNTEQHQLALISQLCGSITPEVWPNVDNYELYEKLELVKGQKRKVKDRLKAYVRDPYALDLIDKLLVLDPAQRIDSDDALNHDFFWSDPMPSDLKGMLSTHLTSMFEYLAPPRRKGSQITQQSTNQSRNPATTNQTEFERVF
T2 sequence (Q9NYV4 whole entry): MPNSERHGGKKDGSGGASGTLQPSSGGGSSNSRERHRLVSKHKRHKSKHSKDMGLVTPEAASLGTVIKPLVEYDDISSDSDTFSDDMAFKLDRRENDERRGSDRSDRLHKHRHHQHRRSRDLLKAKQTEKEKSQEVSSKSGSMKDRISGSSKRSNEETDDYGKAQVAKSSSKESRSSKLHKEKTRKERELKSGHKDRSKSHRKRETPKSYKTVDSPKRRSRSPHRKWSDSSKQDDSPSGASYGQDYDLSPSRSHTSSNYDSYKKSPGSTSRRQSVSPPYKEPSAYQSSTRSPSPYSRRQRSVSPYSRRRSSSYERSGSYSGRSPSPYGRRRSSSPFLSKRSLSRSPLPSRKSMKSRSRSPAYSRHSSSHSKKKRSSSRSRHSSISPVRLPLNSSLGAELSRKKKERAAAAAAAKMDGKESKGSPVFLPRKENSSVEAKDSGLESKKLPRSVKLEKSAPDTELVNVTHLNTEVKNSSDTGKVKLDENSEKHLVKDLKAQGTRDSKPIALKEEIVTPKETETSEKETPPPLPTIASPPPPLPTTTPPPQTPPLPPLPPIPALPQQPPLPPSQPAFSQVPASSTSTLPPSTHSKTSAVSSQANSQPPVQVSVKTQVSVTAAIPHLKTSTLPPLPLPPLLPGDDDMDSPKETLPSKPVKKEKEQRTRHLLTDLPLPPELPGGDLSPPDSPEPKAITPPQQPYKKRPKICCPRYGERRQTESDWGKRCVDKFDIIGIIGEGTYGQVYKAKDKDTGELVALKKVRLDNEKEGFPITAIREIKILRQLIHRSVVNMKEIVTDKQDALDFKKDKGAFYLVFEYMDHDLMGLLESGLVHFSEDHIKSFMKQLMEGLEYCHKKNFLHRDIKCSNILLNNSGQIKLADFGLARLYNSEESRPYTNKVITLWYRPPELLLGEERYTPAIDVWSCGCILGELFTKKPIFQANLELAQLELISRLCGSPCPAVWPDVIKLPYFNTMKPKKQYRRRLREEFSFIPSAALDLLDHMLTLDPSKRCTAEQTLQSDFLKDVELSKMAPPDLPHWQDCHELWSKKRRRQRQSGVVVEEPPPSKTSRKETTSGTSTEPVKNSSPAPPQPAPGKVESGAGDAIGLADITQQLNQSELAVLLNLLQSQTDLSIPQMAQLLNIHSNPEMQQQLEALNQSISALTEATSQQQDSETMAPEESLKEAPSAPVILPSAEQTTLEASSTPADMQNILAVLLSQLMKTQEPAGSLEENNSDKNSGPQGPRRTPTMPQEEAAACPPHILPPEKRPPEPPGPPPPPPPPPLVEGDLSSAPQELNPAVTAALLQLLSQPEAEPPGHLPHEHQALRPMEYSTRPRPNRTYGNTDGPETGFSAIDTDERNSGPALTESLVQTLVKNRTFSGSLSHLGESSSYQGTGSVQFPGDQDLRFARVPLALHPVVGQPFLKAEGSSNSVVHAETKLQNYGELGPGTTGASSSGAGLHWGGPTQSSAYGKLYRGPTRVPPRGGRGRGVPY
T2 sequence (Q96SW2 whole entry): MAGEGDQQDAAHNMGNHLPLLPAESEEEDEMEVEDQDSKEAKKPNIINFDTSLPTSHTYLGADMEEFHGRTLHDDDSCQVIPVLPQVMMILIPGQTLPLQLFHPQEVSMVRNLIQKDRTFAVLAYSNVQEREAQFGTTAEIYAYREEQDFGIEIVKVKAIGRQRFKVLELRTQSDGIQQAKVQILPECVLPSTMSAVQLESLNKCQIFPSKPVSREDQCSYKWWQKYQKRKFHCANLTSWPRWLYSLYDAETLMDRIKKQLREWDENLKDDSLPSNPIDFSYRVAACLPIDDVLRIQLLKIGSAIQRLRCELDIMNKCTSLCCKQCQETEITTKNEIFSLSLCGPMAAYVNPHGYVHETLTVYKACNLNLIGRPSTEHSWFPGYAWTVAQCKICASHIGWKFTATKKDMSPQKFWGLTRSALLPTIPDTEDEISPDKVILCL
T3 sequence (Q9NYV4 whole entry, the tested form may be a part): as the sequence (Q9NYV4 whole entry) above
T4 sequence (P50613 whole entry): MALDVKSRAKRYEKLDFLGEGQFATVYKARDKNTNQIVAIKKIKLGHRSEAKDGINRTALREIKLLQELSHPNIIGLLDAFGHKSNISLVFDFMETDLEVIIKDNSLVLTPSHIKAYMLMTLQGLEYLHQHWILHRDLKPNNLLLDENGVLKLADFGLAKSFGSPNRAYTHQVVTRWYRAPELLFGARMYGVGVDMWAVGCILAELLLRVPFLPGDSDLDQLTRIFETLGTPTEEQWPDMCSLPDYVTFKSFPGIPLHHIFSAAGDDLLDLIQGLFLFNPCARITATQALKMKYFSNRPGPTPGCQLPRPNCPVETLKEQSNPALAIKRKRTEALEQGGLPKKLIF
Cyclin-dependent kinase 12 (Mus musculus, UniProt Q14AX6), sequence (Q14AX6 whole entry): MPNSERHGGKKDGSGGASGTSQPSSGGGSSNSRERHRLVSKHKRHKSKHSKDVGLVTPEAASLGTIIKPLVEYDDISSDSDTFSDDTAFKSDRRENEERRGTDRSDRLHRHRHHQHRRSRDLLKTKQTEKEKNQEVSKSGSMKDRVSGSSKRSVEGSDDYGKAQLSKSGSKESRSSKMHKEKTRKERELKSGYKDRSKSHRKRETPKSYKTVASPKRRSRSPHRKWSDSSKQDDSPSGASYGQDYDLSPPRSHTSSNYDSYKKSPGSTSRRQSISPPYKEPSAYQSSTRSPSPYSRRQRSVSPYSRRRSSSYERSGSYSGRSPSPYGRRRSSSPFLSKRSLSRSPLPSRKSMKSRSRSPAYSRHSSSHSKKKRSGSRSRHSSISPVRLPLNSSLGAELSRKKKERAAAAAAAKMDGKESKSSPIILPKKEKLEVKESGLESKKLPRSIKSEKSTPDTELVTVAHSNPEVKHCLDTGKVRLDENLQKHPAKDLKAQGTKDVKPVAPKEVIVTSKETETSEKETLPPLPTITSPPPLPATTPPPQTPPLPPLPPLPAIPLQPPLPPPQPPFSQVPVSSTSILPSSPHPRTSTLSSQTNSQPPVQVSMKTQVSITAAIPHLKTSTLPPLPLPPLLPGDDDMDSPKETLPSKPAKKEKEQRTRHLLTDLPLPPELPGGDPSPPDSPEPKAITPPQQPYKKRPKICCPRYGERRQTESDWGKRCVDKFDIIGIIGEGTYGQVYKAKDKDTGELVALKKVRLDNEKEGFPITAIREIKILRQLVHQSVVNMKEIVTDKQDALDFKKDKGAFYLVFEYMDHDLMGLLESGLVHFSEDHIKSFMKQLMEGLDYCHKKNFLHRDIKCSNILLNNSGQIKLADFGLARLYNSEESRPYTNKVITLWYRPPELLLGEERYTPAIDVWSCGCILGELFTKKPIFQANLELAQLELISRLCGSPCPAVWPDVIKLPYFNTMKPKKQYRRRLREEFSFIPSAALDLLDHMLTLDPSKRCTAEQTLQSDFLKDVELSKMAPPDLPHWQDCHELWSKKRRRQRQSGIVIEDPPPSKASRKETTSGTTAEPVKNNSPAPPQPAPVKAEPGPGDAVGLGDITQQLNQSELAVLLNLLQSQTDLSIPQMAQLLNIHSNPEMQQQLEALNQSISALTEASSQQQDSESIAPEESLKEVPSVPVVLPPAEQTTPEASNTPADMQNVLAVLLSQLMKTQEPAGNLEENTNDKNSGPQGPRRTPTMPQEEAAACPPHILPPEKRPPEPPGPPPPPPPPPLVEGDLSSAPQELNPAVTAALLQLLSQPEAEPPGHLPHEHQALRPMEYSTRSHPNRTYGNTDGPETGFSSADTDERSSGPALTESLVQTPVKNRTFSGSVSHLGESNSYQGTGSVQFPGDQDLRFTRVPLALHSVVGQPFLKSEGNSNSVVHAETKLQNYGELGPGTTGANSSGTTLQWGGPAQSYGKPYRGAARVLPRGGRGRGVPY
Cyclin-dependent kinase 1, sequence (P06493 whole entry, the tested form may be a part): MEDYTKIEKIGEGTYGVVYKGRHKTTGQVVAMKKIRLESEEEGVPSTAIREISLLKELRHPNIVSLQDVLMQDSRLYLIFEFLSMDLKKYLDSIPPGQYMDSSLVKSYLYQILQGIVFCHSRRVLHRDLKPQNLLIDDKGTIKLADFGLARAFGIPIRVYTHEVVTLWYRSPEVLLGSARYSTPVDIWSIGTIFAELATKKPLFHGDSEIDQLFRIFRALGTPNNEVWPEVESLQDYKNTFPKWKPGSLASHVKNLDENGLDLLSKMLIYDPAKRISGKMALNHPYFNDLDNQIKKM
Cyclin-dependent kinase 6, sequence (Q00534 whole entry): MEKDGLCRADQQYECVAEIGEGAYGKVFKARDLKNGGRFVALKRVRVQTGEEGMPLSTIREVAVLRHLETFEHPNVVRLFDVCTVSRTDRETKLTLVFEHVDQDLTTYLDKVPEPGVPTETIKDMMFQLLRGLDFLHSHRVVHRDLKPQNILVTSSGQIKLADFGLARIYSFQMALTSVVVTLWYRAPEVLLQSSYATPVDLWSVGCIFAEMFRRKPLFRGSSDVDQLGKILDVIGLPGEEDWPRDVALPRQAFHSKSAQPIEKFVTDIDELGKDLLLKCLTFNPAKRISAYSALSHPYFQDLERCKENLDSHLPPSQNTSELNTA

For orientation: pIC50 means the IC50 on a negative log10 scale, so that one unit is a factor of ten. With `CN(C)C/C=C/C(=O)Nc1ccc(C(=O)N2CCC[C@@H](Nc3ncc(Cl)c(-c4c[nH]c5ccccc45)n3)C2)cc1`, the pIC50 in test [1] is 4.98.

`Clc1cnc(N[C@H]2CCCNC2)nc1-c1c[nH]c2ccccc12`: in [2], the pIC50 is 6.97.

Regarding `CCn1cnc2c(NCc3nc4ccc(F)c(F)c4[nH]3)nc(N3CCCC[C@H]3CCO)nc21`, the values for the pIC50 in test [3], in test [4] and in test [5] were 4.54, 7.85 and < 4.52, respectively.

A word on the pKd: it is the Kd on a negative log10 scale, so that one unit is a factor of ten. Read a low pKd as a high Kd. For the compound `Cn1cc(-n2cnc3c(NCc4nc5cc(Cl)c(Cl)cc5[nH]4)nc(N4CCOCC4)nc32)cn1`, the pKd in test [6] is 5.29; in test [7], < 5.00.

On to `CC(C)n1cnc2c(NCc3nc4ccc(F)c(F)c4[nH]3)nc(N3CCCC[C@H]3CCO)nc21`, for which the pIC50 in test [4] is 7.51.

As for `C=CC(=O)Nc1cccc(Nc2nc(N3CCCC[C@H]3CCO)nc3c2ncn3CC)c1`, the pIC50 in [8] and in [9] was 8.10 in each case.

As for `CCc1cnn2c(NCc3nc4ccc(F)c(F)c4[nH]3)cc(N3CCCC[C@H]3CCO)nc12`, the pIC50 in test [10] was 7.40; in test [3], 5.47; in [11], 6.62; in test [4], 7.66; in test [12], 7.33; in test [5], 4.67.

As for `CC(C)S(=O)(=O)c1ccccc1Nc1nc(N[C@H]2CCCN(CCCCCCCNC(=O)COc3cccc4c3C(=O)N(C3CCC(=O)NC3=O)C4=O)C2)ncc1Cl` (stereo partly drawn), the pIC50 in test [13] was 8.22.

In the case of `O=C(COc1cccc2c1C(=O)N(C1CCC(=O)NC1=O)C2=O)NCCCCCCCN1CCC[C@H](Nc2ncc(Cl)c(-c3c[nH]c4ccccc34)n2)C1` (stereo partly drawn), the pIC50 in test [2] is 8.05.

The term pEC50 denotes −log10 of the EC50, conventionally taken in molar units. Low readings indicate a large EC50, high ones a small EC50. Turning to `O=C(CN1CCC[C@@H](Nc2ncc(Cl)c(-c3c[nH]c4ccccc34)n2)C1)Nc1ccc([As](O)O)cc1`, in test [14], the pEC50 was 7.46.

On to `CN(C)C/C=C/C(O)Nc1ccc(C(=O)Nc2cccc(Nc3ncc(Cl)c(-c4c[nH]c5ccccc45)n3)c2)cc1` (stereo not drawn), for which the pIC50 was 6.20 in test [15], 6.62 in test [16] and 6.05 in test [17].

In turn, `O=C(CN1CCC[C@@H](Nc2ncc(Cl)c(-c3c[nH]c4ccccc34)n2)C1)Nc1ccc([As]2SCCS2)cc1` had a pEC50 in test [14] of 7.49.
